Laboratory results as given in ChEMBL document CHEMBL1156586, “Structure-activity relationship studies of permeability modulating peptide AT-1002” (Bioorg Med Chem Lett, 2008).
*1 amine or outer side, *2 acyl side, *3 side chain or, on linkers, in order; H or OH if unused. Where a SMILES comes first, the peptide text is derived from it. Bridges are numbered along the chain shown (N, C = ends). Roman numbers before positions name the chains, in order. [ ]: non-standard residue; d: D form. X1 = O=C([C@H](/C=C/c1ccccc1)N[*:1])[*:2]; Leu(4,5-dehydro) = C=C(C)C[C@H](N)C(=O)O; Phe(4-CN) = N#Cc1ccc(C[C@H](N)C(=O)O)cc1; Phe(3-Me) = Cc1cccc(C[C@H](N)C(=O)O)c1; Met(O2) = CS(=O)(=O)CC[C@H](N)C(=O)O; Ala(cPr) = N[C@@H](CC1CC1)C(=O)O; 2Pal = N[C@@H](Cc1ccccn1)C(=O)O; Met(O) = CS(=O)CC[C@H](N)C(=O)O; 2Thi = N[C@@H](Cc1cccs1)C(=O)O; Cha = N[C@@H](CC1CCCCC1)C(=O)O; Tle = CC(C)(C)[C@H](N)C(=O)O; Dab = NCC[C@H](N)C(=O)O; Nva = CCC[C@H](N)C(=O)O; Abu = CC[C@H](N)C(=O)O

What was measured:
Caco-2 [1] = test: Permeability from apical to basolateral side of human Caco-2 cell monolayers assessed as increase in lucifer yellow flux at 7.0 mM relative to untreated control; assay type: ADME, cell-based; settings: caco-2, 7000 µM
Caco-2 [2] = test: Effect on integrity in human Caco-2 cell monolayers assessed as transepithelial resistance by epithelial voltohmmeter relative to control; assay type: ADME, cell-based; parameters: concentration or dose not given beside the values

Structure (SMILES) | fold change (FC) (Caco-2 [1]) | Activity (Caco-2 [2])
C=CC[C@@H](NC(=O)[C@@H](N)Cc1ccccc1)C(=O)N[C@H](C(=O)NCC(=O)N[C@@H](CCCNC(=N)N)C(=O)N[C@@H](CC(C)C)C(=O)O)[C@@H](C)CC | 0.8 | 130%
CC[C@H](C)[C@H](NC(=O)[C@H](CS)NC(=O)[C@@H](N)Cc1ccccc1)C(=O)NCC(=O)O (H-FCIG-OH) | 2.2 | 103%
CC[C@H](C)[C@H](NC(=O)[C@H](CS)NC(=O)[C@@H](N)Cc1ccccc1)C(=O)NCC(=O)N[C@@H](CCCNC(=N)N)C(=O)O (H-FCIGR-OH) | 31 | 21%
CC[C@H](C)[C@H](NC(=O)[C@H](CS)NC(=O)[C@@H](N)Cc1ccccc1)C(=O)NCC(=O)N[C@@H](CCCNC(=N)N)C(=O)N[C@@H](CC(C)C)C(=O)O (H-FCIGRL-OH) | 52 | 11%
CC[C@H](C)[C@H](NC(=O)[C@H](CC(=O)O)NC(=O)[C@@H](N)Cc1ccccc1)C(=O)NCC(=O)N[C@@H](CCCNC(=N)N)C(=O)N[C@@H](CC(C)C)C(=O)O (H-FDIGRL-OH) | 0.7 | 148%
CC[C@H](C)[C@H](NC(=O)[C@H](CCCCN)NC(=O)[C@@H](N)Cc1ccccc1)C(=O)NCC(=O)N[C@@H](CCCNC(=N)N)C(=O)N[C@@H](CC(C)C)C(=O)O (H-FKIGRL-OH) | 0.4 | 110%
CC[C@H](C)[C@H](NC(=O)[C@H](CC(C)C)NC(=O)[C@@H](N)Cc1ccccc1)C(=O)NCC(=O)N[C@@H](CCCNC(=N)N)C(=O)N[C@@H](CC(C)C)C(=O)O (H-FLIGRL-OH) | 1 | 121%
CC[C@H](C)[C@H](NC(=O)[C@H](CC(N)=O)NC(=O)[C@@H](N)Cc1ccccc1)C(=O)NCC(=O)N[C@@H](CCCNC(=N)N)C(=O)N[C@@H](CC(C)C)C(=O)O (H-FNIGRL-OH) | 1.5 | 83%
CC[C@H](C)[C@H](NC(=O)[C@H](CCC(N)=O)NC(=O)[C@@H](N)Cc1ccccc1)C(=O)NCC(=O)N[C@@H](CCCNC(=N)N)C(=O)N[C@@H](CC(C)C)C(=O)O (H-FQIGRL-OH) | 1.5 | 112%
CC[C@H](C)[C@H](NC(=O)[C@@H](NC(=O)[C@@H](N)Cc1ccccc1)[C@@H](C)O)C(=O)NCC(=O)N[C@@H](CCCNC(=N)N)C(=O)N[C@@H](CC(C)C)C(=O)O (H-FTIGRL-OH) | 3.9 | 66%
CC[C@H](C)[C@H](NC(=O)[C@@H](NC(=O)[C@@H](N)Cc1ccccc1)C(C)C)C(=O)NCC(=O)N[C@@H](CCCNC(=N)N)C(=O)N[C@@H](CC(C)C)C(=O)O (H-FVIGRL-OH) | 5.7 | 50%
CC[C@H](C)[C@H](NC(=O)[C@H](Cc1cccs1)NC(=O)[C@@H](N)Cc1ccccc1)C(=O)NCC(=O)N[C@@H](CCCNC(=N)N)C(=O)N[C@@H](CC(C)C)C(=O)O (H-F[2Thi]IGRL-OH) | 1.4 | 119%
CC[C@H](NC(=O)[C@@H](N)Cc1ccccc1)C(=O)N[C@H](C(=O)NCC(=O)N[C@@H](CCCNC(=N)N)C(=O)N[C@@H](CC(C)C)C(=O)O)[C@@H](C)CC (H-F[Abu]IGRL-OH) | 1.1 | 96%
CC[C@H](C)[C@H](NC(=O)[C@H](CC1CC1)NC(=O)[C@@H](N)Cc1ccccc1)C(=O)NCC(=O)N[C@@H](CCCNC(=N)N)C(=O)N[C@@H](CC(C)C)C(=O)O (H-F[Ala(cPr)]IGRL-OH) | 0.6 | 111%
C=C(C)C[C@H](NC(=O)[C@@H](N)Cc1ccccc1)C(=O)N[C@H](C(=O)NCC(=O)N[C@@H](CCCNC(=N)N)C(=O)N[C@@H](CC(C)C)C(=O)O)[C@@H](C)CC (H-F[Leu(4,5-dehydro)]IGRL-OH) | 1.9 | 115%
CC[C@H](C)[C@H](NC(=O)[C@H](CCS(C)(=O)=O)NC(=O)[C@@H](N)Cc1ccccc1)C(=O)NCC(=O)N[C@@H](CCCNC(=N)N)C(=O)N[C@@H](CC(C)C)C(=O)O (H-F[Met(O2)]IGRL-OH) | 0.7 | 110%
CC[C@H](C)[C@H](NC(=O)[C@H](CC[S+](C)[O-])NC(=O)[C@@H](N)Cc1ccccc1)C(=O)NCC(=O)N[C@@H](CCCNC(=N)N)C(=O)N[C@@H](CC(C)C)C(=O)O (stereo partly specified) (H-F[Met(O)]IGRL-OH) | 1.1 | 106%
CCC[C@H](NC(=O)[C@@H](N)Cc1ccccc1)C(=O)N[C@H](C(=O)NCC(=O)N[C@@H](CCCNC(=N)N)C(=O)N[C@@H](CC(C)C)C(=O)O)[C@@H](C)CC (H-F[Nva]IGRL-OH) | 1.6 | 98%
CC[C@H](C)[C@H](NC(=O)[C@H](Cc1ccc(C#N)cc1)NC(=O)[C@@H](N)Cc1ccccc1)C(=O)NCC(=O)N[C@@H](CCCNC(=N)N)C(=O)N[C@@H](CC(C)C)C(=O)O (H-F[Phe(4-CN)]IGRL-OH) | 0.3 | 118%
CC[C@H](C)[C@H](NC(=O)[C@@H](NC(=O)[C@@H](N)Cc1ccccc1)C(C)(C)C)C(=O)NCC(=O)N[C@@H](CCCNC(=N)N)C(=O)N[C@@H](CC(C)C)C(=O)O (H-F[Tle]IGRL-OH) | 6.7 | 35%
CC[C@H](C)[C@H](NC(=O)[C@H](/C=C/c1ccccc1)NC(=O)[C@@H](N)Cc1ccccc1)C(=O)NCC(=O)N[C@@H](CCCNC(=N)N)C(=O)N[C@@H](CC(C)C)C(=O)O (H-F[X1]IGRL-OH) | 1 | 113%
CC[C@H](C)[C@H](NC(=O)[C@H](CSSC[C@H](NC(=O)[C@@H](N)Cc1ccccc1)C(=O)N[C@H](C(=O)NCC(=O)N[C@@H](CCCNC(=N)N)C(=O)N[C@@H](CC(C)C)C(=O)O)[C@@H](C)CC)NC(=O)[C@@H](N)Cc1ccccc1)C(=O)NCC(=O)N[C@@H](CCCNC(=N)N)C(=O)N[C@@H](CC(C)C)C(=O)O (I: H-FCIGRL-OH / II: H-FCIGRL-OH; disulfide I:2-II:2) | 0.7 | 137%

Further lines, results first:

fold change (FC) (Caco-2 [1]) | Activity (Caco-2 [2]) | Structure (SMILES)
103 | 20% | C=CC[C@H](NC(=O)[C@@H](N)Cc1ccccc1)C(=O)N[C@H](C(=O)NCC(=O)N[C@@H](CCCNC(=N)N)C(=O)N[C@@H](CC(C)C)C(=O)O)[C@@H](C)CC
1.3 | 104% | CC[C@H](C)[C@H](NC(=O)[C@H](CCC(=O)O)NC(=O)[C@@H](N)Cc1ccccc1)C(=O)NCC(=O)N[C@@H](CCCNC(=N)N)C(=O)N[C@@H](CC(C)C)C(=O)O (H-FEIGRL-OH)
1 | 102% | CC[C@H](C)[C@H](NC(=O)[C@H](Cc1cnc[nH]1)NC(=O)[C@@H](N)Cc1ccccc1)C(=O)NCC(=O)N[C@@H](CCCNC(=N)N)C(=O)N[C@@H](CC(C)C)C(=O)O (H-FHIGRL-OH)
2.2 | 102% | CC[C@H](C)[C@H](NC(=O)[C@H](CCCNC(=N)N)NC(=O)[C@@H](N)Cc1ccccc1)C(=O)NCC(=O)N[C@@H](CCCNC(=N)N)C(=O)N[C@@H](CC(C)C)C(=O)O (H-FRIGRL-OH)
2.1 | 94% | CC[C@H](C)[C@H](NC(=O)[C@H](CO)NC(=O)[C@@H](N)Cc1ccccc1)C(=O)NCC(=O)N[C@@H](CCCNC(=N)N)C(=O)N[C@@H](CC(C)C)C(=O)O (H-FSIGRL-OH)
0.6 | 118% | CC[C@H](C)[C@H](NC(=O)[C@H](Cc1ccc(O)cc1)NC(=O)[C@@H](N)Cc1ccccc1)C(=O)NCC(=O)N[C@@H](CCCNC(=N)N)C(=O)N[C@@H](CC(C)C)C(=O)O (H-FYIGRL-OH)
0.5 | 148% | CC[C@H](C)[C@H](NC(=O)[C@H](Cc1ccccn1)NC(=O)[C@@H](N)Cc1ccccc1)C(=O)NCC(=O)N[C@@H](CCCNC(=N)N)C(=O)N[C@@H](CC(C)C)C(=O)O (H-F[2Pal]IGRL-OH)
2.1 | 68% | CC[C@H](C)[C@H](NC(=O)[C@H](CC1CCCCC1)NC(=O)[C@@H](N)Cc1ccccc1)C(=O)NCC(=O)N[C@@H](CCCNC(=N)N)C(=O)N[C@@H](CC(C)C)C(=O)O (H-F[Cha]IGRL-OH)
2.1 | 94% | CC[C@H](C)[C@H](NC(=O)[C@H](CCN)NC(=O)[C@@H](N)Cc1ccccc1)C(=O)NCC(=O)N[C@@H](CCCNC(=N)N)C(=O)N[C@@H](CC(C)C)C(=O)O (H-F[Dab]IGRL-OH)
0.6 | 101% | CC[C@H](C)[C@H](NC(=O)[C@H](Cc1cccc(C)c1)NC(=O)[C@@H](N)Cc1ccccc1)C(=O)NCC(=O)N[C@@H](CCCNC(=N)N)C(=O)N[C@@H](CC(C)C)C(=O)O (H-F[Phe(3-Me)]IGRL-OH)
0.9 | 70% | CC[C@H](C)[C@H](N)C(=O)NCC(=O)N[C@@H](CCCNC(=N)N)C(=O)N[C@@H](CC(C)C)C(=O)O (H-IGRL-OH)
